# Experimental data as given in patent publication US8987250B2 (Gilead Sciences, Inc., priority 2012, dated 2015).
# Test system: HIV-IIIb
# Test: Test A: Antiviral Assay in MT4 Cells
# Assay type: cell-based
# Conditions: Human immunodeficiency virus 1, IIIB, MT4, 120 h
# In short: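 MT-4 cells pre-infected with HIV-IIIb (0.004 m.o.i.) at 37 °C, then exposed to 3-fold serial compound dilutions (10 concentrations, quadruplicate) in RPMI 1640/10% FBS. After 5 days at 37 °C, viability read by CellTiter-Glo luminescence.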
row,SMILES,EC50
1,"Cc1cc2nc(-c3cccc(N4CCN(C(C)C)CC4)n3)sc2c(-c2ccc(Cl)cc2)c1[C@H](OC(C)(C)C)C(=O)O [Compound 307, (S)-2-tert-butoxy-2-(7-(4-chlorophenyl)-2-(6-(4-isopropylpiperazin-1-yl)pyridin-2-yl)-5-methylbenzo[d]thiazol-6-yl)acetic acid]",4 nM
2,"Cc1cc2nc(-c3nc(-c4ccc5c(cnn5C)c4)cs3)sc2c(-c2ccc(Cl)cc2)c1[C@H](OC(C)(C)C)C(=O)O [Compound 310, (S)-2-tert-butoxy-2-(7-(4-chlorophenyl)-5-methyl-2-(4-(1-methyl-1H-indazol-5-yl)thiazol-2-yl)benzo[d]thiazol-6-yl)acetic acid]",26 nM

# Same assay, conditions: Human immunodeficiency virus 1, IIIB, MT4, 120 h, Table 2; MT-4 cells infected with HIV-IIIb, 5 days of incubation, CellTiter-Glo; read-out: EC50
row,SMILES,EC50
1,"Cc1cc2nc(-c3cnc(C)c(-c4ccc5c(cnn5C)c4)c3)sc2c(-c2ccc(Cl)cc2)c1[C@H](OC(C)(C)C)C(=O)O [Compound 305, (S)-2-tert-butoxy-2-(7-(4-chlorophenyl)-5-methyl-2-(6-methyl-5-(1-methyl-1H-indazol-5-yl)pyridin-3-yl)benzo[d]thiazol-6-yl)acetic acid]",10 nM
2,"Cc1cc2nc(-c3cc(-c4ccc5c(cnn5C)c4)cnc3C)sc2c(-c2ccc(Cl)cc2)c1[C@H](OC(C)(C)C)C(=O)O [Compound 306, (S)-2-tert-butoxy-2-(7-(4-chlorophenyl)-5-methyl-2-(2-methyl-5-(1-methyl-1H-indazol-5-yl)pyridin-3-yl)benzo[d]thiazol-6-yl)acetic acid]",14 nM
3,"Cc1cc2nc(-c3cccc(N4CCN(C5COC5)CC4)n3)sc2c(-c2ccc(Cl)cc2)c1[C@H](OC(C)(C)C)C(=O)O [Compound 308, (S)-2-tert-butoxy-2-(7-(4-chlorophenyl)-5-methyl-2-(6-(4-(oxetan-3-yl)piperazin-1-yl)pyridin-2-yl)benzo[d]thiazol-6-yl)acetic acid]",6 nM
4,"Cc1cc2nc(-c3cccc(-c4ccc5c(cnn5C)c4)n3)sc2c(-c2ccc(Cl)cc2)c1[C@H](OC(C)(C)C)C(=O)O [Compound 309, (S)-2-tert-butoxy-2-(7-(4-chlorophenyl)-5-methyl-2-(6-(1-methyl-1H-indazol-5-yl)pyridin-2-yl)benzo[d]thiazol-6-yl)acetic acid]",37 nM
5,"Cc1cc2nc(-c3nc(-c4ccc5c(cnn5C)c4)ccc3N)sc2c(-c2ccc(Cl)cc2)c1[C@H](OC(C)(C)C)C(=O)O [Compound 311, (S)-2-(2-(3-amino-6-(1-methyl-1H-indazol-5-yl)pyridin-2-yl)-7-(4-chlorophenyl)-5-methylbenzo[d]thiazol-6-yl)-2-tert-butoxyacetic acid]",45 nM
6,"Cc1cc2nc(-c3cn(C)c(-c4ccc5c(cnn5C)c4)n3)sc2c(-c2ccc(Cl)cc2)c1[C@H](OC(C)(C)C)C(=O)O [Compound 312, (S)-2-tert-butoxy-2-(7-(4-chlorophenyl)-5-methyl-2-(1-methyl-2-(1-methyl-1H-indazol-5-yl)-1H-imidazol-4-yl)benzo[d]thiazol-6-yl)acetic acid]",37 nM
7,"Cc1ccc(-c2nc3cc(C)c([C@H](OC(C)(C)C)C(=O)O)c(-c4ccc(Cl)cc4)c3s2)nc1-c1ccc2c(cnn2C)c1 [Compound 313, (S)-2-tert-butoxy-2-(7-(4-chlorophenyl)-5-methyl-2-(5-methyl-6-(1-methyl-1H-indazol-5-yl)pyridin-2-yl)benzo[d]thiazol-6-yl)acetic acid]",14 nM
8,"Cc1cc2nc(-c3ccc4c(c3)c(C)nn4Cc3ccccc3)sc2c(-c2ccc(Cl)cc2)c1[C@H](OC(C)(C)C)C(=O)O [Compound 314, (S)-2-(2-(1-benzyl-3-methyl-1H-indazol-5-yl)-7-(4-chlorophenyl)-5-methylbenzo[d]thiazol-6-yl)-2-tert-butoxyacetic acid]",42 nM
9,"Cc1cc2nc(-c3ccc4nn(Cc5ccccc5)c(C)c4c3)sc2c(-c2ccc(Cl)cc2)c1[C@H](OC(C)(C)C)C(=O)O [Compound 315, (S)-2-(2-(2-benzyl-3-methyl-2H-indazol-5-yl)-7-(4-chlorophenyl)-5-methylbenzo[d]thiazol-6-yl)-2-tert-butoxyacetic acid]",34 nM
